# According to paper PMC10866013 (Nature, 2023):
# System: MRSA USA300
# Type: cell-based, Staphylococcus aureus
# Details: vs S. aureus RN4220
smiles,measurement,value
CC1(C)S[C@@H]2[C@H](NC(=O)[C@H](N)c3ccccc3)C(=O)N2[C@H]1C(=O)O [ampicillin],MIC increase in MRSA USA300 relative to the methicillin-susceptible strain,at least 16 fold
